# Experimental data taken from patent US20080058299A1, “Method of treating or preventing bone deterioration or osteoporosis” (priority 2005, published 2008).
# Values joined by “and” are separate entries in the source; they are usually repeats but may differ in a detail not shown here. Equal values may be shown once. Read-outs that look alike come from different tables or passages of the source.
# Experiments:
# postmenopausal women = settings: 32 postmenopausal women, average 19 months, versus 19 placebo-treated women; cited from earlier work
# hypogonadal men [1] = experiment: Bone mineral density by DXA in hypogonadal men; type: in vivo
# Description: (§1) Ten men with severe and untreated hypogonadism due to known disease were entered into the study.
# (§2) All subjects were assessed by dual energy X-ray absorptiometry (DXA) and magnetic resonance microimaging (μMRI) at 0, 6, 12 and 24 months. The hypogonadal subjects were also assessed for markers of bone metabolism at 0, 3, and 6 months.
# Bone mineral density (BMD) of the anterior-posterior lumbar spine (L1-L4) and of the right hip was determined by DXA using Hologic densitometers (Hologic, Inc., Bedford, Mass.), a QDR-4500A for the first year of the study and a Dephi A for the second. […] Scans from the same subject were evaluated by the “compare” feature of the DXA instrument. The coefficients of variation for long-term instrument stability, as assessed by daily measurements of a phantom, were <0.9%.
# (§3) For all parameters, changes from 0 to 24 months were tested by multivariate analysis of variance, one factor repeated measures design. If the change from 0 to 24 months was significant, pair-wise comparisons of each treatment time (6, 12, and 24 months) against pretreatment were determined with Dunnett's test. Missing values were imputed by the method of last observation carried forward. A type I error rate of 0.05 was used for determining statistical significance. SAS statistical software, version 9.1 (SAS Institute, Inc., Cary, N.C.) was used for all analysis.
# [2] = Serum testosterone and estradiol concentrations in hypogonadal men treated with AndroGel for 24 months; type: in vivo
# Description: (§4) Ten men with severe and untreated hypogonadism due to known disease were entered into the study. […] All ten subjects had secondary hypogonadism. Eight subjects had pituitary adenomas, one had pinealoma, and one had Kallmann's syndrome. Hypogonadism developed in adulthood in nine. […] The estimated duration of hypogonadism was 2-30 years (median, 5 years). […] Of the two who had been treated, one had not been treated for four years and the other for 20 years before entering the study. The median age at entry was 51 years (range 31-78).
# Estradiol was measured by ultrasensitive immunoradiometric assay (DSL, Webster, Tex.). Intra- and interassay coefficients of variation were <10%.
# [3] = cited from earlier work
# hypogonadal men [4] = experiment: Markers of bone metabolism in hypogonadal men; type: in vivo
# Description: as §1, §2
# After an overnight fast, blood and a timed 2-hour urine sample were collected. Serum and urine samples were frozen at −70° C. The markers and methods of assay were as follows: bone-specific alkaline phosphatase (BAP), immunoradiometric assay (Tandem-R Ostase, Beckman-Coulter, Inc., Fullerton, Calif.); osteoprotegerin, enzyme-linked immunosorbent assay (American Laboratory Products Company, Windham, N.H.); intact N-terminal propeptide of type I procollagen (PINP), radioimmunoassay, (Orion Diagnostica UniQ, IDS, Inc. Fountain Hills, Ariz.); cross-linked N-telopeptides of type I collagen (NTx), enzyme-linked immunosorbent assay (Osteomark, Ostex International, Inc. Seattle, Wash.). For each assay, all samples were measured in a single assay run.
# hypogonadal men [5] = experiment: Magnetic resonance microimaging (μMRI) of trabecular architecture of the right distal tibia; type: in vivo
# Description: as §4, §2
# Magnetic resonance microimaging (μMRI) of the right distal tibia was performed using a Signa 1.5 Tesla MR scanner (GE Medical Systems, Milwaukee, Wis.) and a custom-designed receive-only radiofrequency phased array surface coil. The coil was placed on the anterior right tibia, the edge 1 cm proximal to the midpoint of the medial malleolus, and the right foot was immobilized. Twenty-eight images were obtained to map trabecular architecture. Song H K, et al., Magn. Reson. Med., 41:947-53 (1999). […] The data were processed using a custom-designed program written in IDL (Interactive Data Language, Boulder, Colo.). Wehrli F W, et al., J. Bone Miner. […] The data were motion-corrected, filtered and Fourier transformed. To ensure that the same volume was analyzed at each time point for each subject, the images corresponding to the 0, 6, 12, and 24 month examinations of each subject were matched for volume of interest by identifying similar trabecular features. After the volume of interest was selected manually on each of the matched slices by tracing a line approximately 1 mm from the endocortical boundary on the anterior half of the distal metaphysis, bone volume fraction maps were computed. Subvoxel processing yielded a voxel size of 69×69×103 μm^3. Hwang S N, et al., Magn. Reson. Med., 47 (2002). A cylindrical core measuring 6.85 mm in diameter was obtained from the center of the volume of interest. (FIG. 3).
# Digital topological analysis of the trabecular network was performed on the entire volume of interest. Gomberg BR, et al., IEEE Trans. […] The topological class of each image voxel was determined, yielding the density of surface voxels, curve voxels, and voxels part of mutual junctions. The topological analysis began with binarization of the three-dimensional images, followed by skeletonization, which converted the plate-like elements of the trabecular network to surfaces and the rodlike elements to curves. Each voxel was then classified as belonging to a surface, curve, or junction between these voxel types. […] One composite parameter was the surface-to-curve ration, the ratio of all surface voxels to all curve voxels. The higher the ratio, the more intact in the trabecular network, and vice versa. The second composite parameter was the topological erosion index, a ratio of parameters that are expected to increase upon trabecular deterioration (Curve edge and curve interior voxels, surface and profile edges, and curve-curve junction voxels) to those expected to decrease (surface interior voxels and surface-surface junctions). The lower the topological erosion index, the smaller the degree to which the trabecular network has deteriorated. Trabecular thickness was determined by an independent program based on the concept of fuzzy distance transform. Saha P K, et al., IEEE Trans.
# as §3, with “A type I error rate of 0.05 was used for determining statistical significance. SAS statistical software, version 9.1 (SAS Institute, Inc., Cary, N.C.) was used for all analysis.” left out
# [6] = distal tibia, 24 Months of treatment
smiles,measurement,setting,value
CC[C@H](C)[C@H](NC(=O)[C@H](CCC(=O)O)NC(=O)[C@H](CO)NC(=O)[C@@H](NC(=O)[C@@H](N)CO)C(C)C)C(=O)N[C@@H](CCC(N)=O)C(=O)N[C@@H](CC(C)C)C(=O)N[C@@H](CCSC)C(=O)N[C@@H](Cc1cnc[nH]1)C(=O)N[C@@H](CC(N)=O)C(=O)N[C@@H](CC(C)C)C(=O)NCC(=O)N[C@@H](CCCCN)C(=O)N[C@@H](Cc1cnc[nH]1)C(=O)N[C@@H](CC(C)C)C(=O)N[C@@H](CC(N)=O)C(=O)N[C@@H](CO)C(=O)N[C@@H](CCSC)C(=O)N[C@@H](CCC(=O)O)C(=O)N[C@@H](CCCN=C(N)N)C(=O)N[C@H](C(=O)N[C@@H](CCC(=O)O)C(=O)N[C@@H](Cc1c[nH]c2ccccc12)C(=O)N[C@@H](CC(C)C)C(=O)N[C@@H](CCCN=C(N)N)C(=O)N[C@@H](CCCCN)C(=O)N[C@@H](CCCCN)C(=O)N[C@@H](CC(C)C)C(=O)N[C@@H](CCC(N)=O)C(=O)N[C@@H](CC(=O)O)C(=O)N[C@H](C(=O)N[C@@H](Cc1cnc[nH]1)C(=O)N[C@@H](CC(N)=O)C(=O)N[C@@H](Cc1ccccc1)C(=O)O)C(C)C)C(C)C [rhPTH],"trabecular connectivity, in words",postmenopausal women,significantly increased their trabecular connectivity
C[C@]12CC[C@H]3[C@@H](CCC4=CC(=O)CC[C@@]43C)[C@@H]1CC[C@@H]2O [Testosterone],"Femoral Neck BMD, % Change 0-24 months",hypogonadal men [1],2.1 ± 5.1%
same,"Femoral Neck BMD, Change 0-24 months",hypogonadal men [1],0.016 ± 0.038 g/cm^2
same,"Intertrochanteric BMD, % Change 0-24 months",hypogonadal men [1],4.4 ± 3.7%
same,"Intertrochanteric BMD, Change 0-24 months",hypogonadal men [1],0.049 ± 0.037 g/cm^2
same,"Spine BMD, % Change 0-24 months",hypogonadal men [1],7.4 ± 5.1%
same,"Spine BMD, Change 0-24 months",hypogonadal men [1],0.069 ± 0.053 g/cm^2
same,"Total Hip BMD, % Change 0-24 months",hypogonadal men [1],3.8 ± 3.4%
same,"Total Hip BMD, Change 0-24 months",hypogonadal men [1],0.034 ± 0.029 g/cm^2
same,"Trochanter BMD, % Change 0-24 months",hypogonadal men [1],4.0 ± 4.7%
same,"Trochanter BMD, Change 0-24 months",hypogonadal men [1],0.027 ± 0.030 g/cm^2
same,"Ward's Triangle BMD, % Change 0-24 months",hypogonadal men [1],5.1 ± 10.1%
same,"Ward's Triangle BMD, Change 0-24 months",hypogonadal men [1],0.028 ± 0.060 g/cm^2
same,Femoral Neck BMD,hypogonadal men [1]; 24 Months of treatment,0.828 ± 0.145 g/cm^2
same,Intertrochanteric BMD,hypogonadal men [1]; 24 Months of treatment,1.206 ± 0.205 g/cm^2
same,Spine BMD,hypogonadal men [1]; 24 Months of treatment,1.000 ± 0.219 g/cm^2
same,Total Hip BMD,hypogonadal men [1]; 24 Months of treatment,0.994 ± 0.162 g/cm^2
same,Ward's Triangle BMD,hypogonadal men [1]; 24 Months of treatment,0.616 ± 0.172 g/cm^2
same,"Spine BMD, % Change 0-24 months",hypogonadal men [1]; listed as testosterone,7.4%
same,concentration at 3 months,"[2]; male, human, serum, topical, AndroGel 5-10 g/day, month 3",6.56 ng/mL and 22.8 nM
same,serum testosterone concentration (in words),[2]; throughout the 24 months of treatment,remained normal
same,bound to protein in the blood,[3]; circulating testosterone,98%
same,share bound weakly to albumin,[3]; in men,60%
same,share of binding to sex hormone binding globulin (SHBG),[3]; in men,approximately 40%
same,"bone-specific alkaline phosphatase (BAP), in words",hypogonadal men [4]; 0 to 6 months,did not change
same,serum intact N-terminal propeptide of type I procollagen (PINP),hypogonadal men [4]; 3 months of treatment,71.3 ± 32.1 µg/L
same,Serum osteoprotegerin,hypogonadal men [4]; 6 months of treatment,4.29 ± 0.82 pmol/L
same,"Urine NTx, in words",hypogonadal men [4]; baseline to 6 months,did not change
same,"Bone Volume Fraction, % Change 0-24 months",hypogonadal men [5]; distal tibia,5.0 ± 4.2%
same,"Bone Volume Fraction, Change 0-24 months",hypogonadal men [5]; distal tibia,0.005 ± 0.004
same,"Trabecular Thickness, % Change 0-24 months",hypogonadal men [5]; distal tibia,1.5 ± 0.5%
same,"Trabecular Thickness, Change 0-24 months",hypogonadal men [5]; distal tibia,1.7 ± 0.6 μ
same,Bone Volume Fraction,hypogonadal men [5]; [6],0.103 ± 0.011
same,Trabecular Thickness,hypogonadal men [5]; [6],120.5 ± 3.8 μ
same,"Bone Volume Fraction, % Change 0-24 months","hypogonadal men [5]; distal tibia, listed as testosterone",5%
same,increase of trabecular thickness during treatment,hypogonadal men [5]; starting at 6 months,~2%
